Data set [1] addresses T1, Cp149 reassembled capsids (Hepatitis B virus genotype D subtype ayw, UniProt P03146). Kind of data set: biochemical. The format is binding, Hepatitis B virus (HBV). As to conditions: ITC, 50 mM HEPES pH 7.5, 298 K.
For another data set, the system named is Cp149 dimer. As to the kind of experiment: Solution-state NMR chemical shift perturbations. The format is binding, Hepatitis B virus (HBV). The conditions noted are these: 4 molar equivalents of compound.
The test system of another data set is many organisms. As to conditions: cited from earlier work.
Data set [2] has as its target T1, Cp149 reassembled capsids. As to conditions: ITC, TX100 value taken from previous data; cited from earlier work. Background: In ITC the heat of successive injections is recorded.

Read-outs that look alike come from different tables or passages of the source.

T1 sequence (P03146 1-149): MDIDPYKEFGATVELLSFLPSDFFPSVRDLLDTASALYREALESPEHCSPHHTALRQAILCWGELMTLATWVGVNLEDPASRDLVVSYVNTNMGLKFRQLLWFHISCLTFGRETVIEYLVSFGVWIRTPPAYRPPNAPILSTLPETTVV

In the case of NP40 [Compound 6g], the ΔH in data set [1] is -14.3 ± 0.38 kJ/mol. In the case of 4-hexylaniline [Compound 2e], the “CSPs / pocket binding in words” value with Cp149 dimer is recorded as “smallest CSPs”. Take `CC(C)(C)CC(C)(C)c1ccc(O)cc1` [Compound 1c, 4-tert-octylphenol]: in data set [1], the ΔH was -20 ± 0.586 kJ/mol and the Kd – broadly, a measure of binding affinity in units of concentration – was found to be 7.5 ± 0.5 µM. Also, the “CSPs / pocket binding in words” value in the data set with Cp149 dimer is “as high as those derived for TX100”. Further, the “toxicity / environmental pollutant” value in the data set on many organisms is given as “toxic to many organisms”. As to 4’-heptylacetophenone [Compound 2d], the “CSPs / pocket binding in words” value in the data set on Cp149 dimer is reported as “rather small CSPs”. In data set [1], `CCCCCCc1ccc(O)cc1` [Compound 2a, 4-hexylphenol] showed a ΔH of -25.1 ± 2.5 kJ/mol and a Kd of 13 ± 3 µM. Regarding Triton X-100 [Compound 1a], in data set [2], the Kd was 8.3 ± 0.5 µM and the ΔH was -19.2 ± 0.21 kJ/mol. Regarding `CC(C)c1ccc(O)cc1` [Compound 4a, 4-isopropylphenol], in data set [1], the ΔH is -21 ± 13 kJ/mol and binding was put at a Kd of 18 ± 7 µM. As to `CCC(C)(C)c1ccc(O)cc1` [Compound 4c, 4-tert-amylphenol], in data set [1], the ΔH was -53.1 ± 5.02 kJ/mol and the Kd came out at 30 ± 4 µM. On to `CCCc1ccc(O)cc1` [Compound 4b, 4-propylphenol], for which, in data set [1], the ΔH was -29 ± 17 kJ/mol and binding was put at a Kd of 14 ± 7 µM. On to Reduced Triton X-100 [Compound 1b], for which the “CSPs / pocket binding in words” value in the data set on Cp149 dimer is given as “very small CSPs”.
